Assay results taken from publication PMC8213057, “Targeting ALK2: An Open Science Approach to Developing Therapeutics for the Treatment of Diffuse Intrinsic Pontine Glioma” (Journal of Medicinal Chemistry, 2020).

Legend:
[1] = molecular target: STK16 (Homo sapiens, UniProt O75716); assay: biochemical; settings: read-out: % enzyme activity, 1 μM; Run 1, Run 2
[2] = molecular target: MLK2/MAP3K10 (Homo sapiens, UniProt Q02779); settings: 1 μM; Run 1, Run 2
[3] = molecular target: FGR (Homo sapiens, UniProt P09769); assay: biochemical; settings: read-out: % enzyme activity, 1 μM; Run 1, Run 2
[4] = molecular target: EPHA2 (Homo sapiens, UniProt P29317); assay: biochemical; settings: read-out: % enzyme activity, 1 μM; Run 1, Run 2
[5] = molecular target: CAMKK1 (Homo sapiens, UniProt Q8N5S9); assay: biochemical; settings: read-out: % enzyme activity, 1 μM; Run 1, Run 2
[6] = molecular target: P38b/MAPK11 (Homo sapiens, UniProt Q15759); assay: biochemical; settings: read-out: % enzyme activity, 1 μM; Run 1, Run 2
[7] = molecular target: MAST3 (Homo sapiens, UniProt O60307); settings: 1 μM; Run 1, Run 2
[8] = molecular target: CDK18/cyclin Y (PCTK3) (Homo sapiens, UniProt Q07002); assay: biochemical; settings: read-out: % enzyme activity, 1 μM; Run 1, Run 2
[9] = molecular target: T1, DYRK4 (Homo sapiens, UniProt Q9NR20); settings: 1 μM; Run 1, Run 2
T1 sequence (Q9NR20 1-520): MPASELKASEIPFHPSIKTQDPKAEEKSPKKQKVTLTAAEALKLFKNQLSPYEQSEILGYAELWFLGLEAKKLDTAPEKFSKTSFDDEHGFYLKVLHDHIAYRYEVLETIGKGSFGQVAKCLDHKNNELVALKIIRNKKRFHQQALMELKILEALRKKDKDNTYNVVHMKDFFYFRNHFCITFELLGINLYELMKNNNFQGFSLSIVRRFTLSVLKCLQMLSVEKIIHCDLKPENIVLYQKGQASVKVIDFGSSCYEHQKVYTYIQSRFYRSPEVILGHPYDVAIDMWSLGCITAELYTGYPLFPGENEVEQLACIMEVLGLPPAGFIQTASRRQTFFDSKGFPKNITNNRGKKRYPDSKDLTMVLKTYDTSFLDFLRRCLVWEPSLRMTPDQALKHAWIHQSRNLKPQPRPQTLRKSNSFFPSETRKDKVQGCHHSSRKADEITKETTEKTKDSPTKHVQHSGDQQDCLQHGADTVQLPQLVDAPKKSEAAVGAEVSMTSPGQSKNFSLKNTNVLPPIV

[10] = molecular target: CDK2/cyclin E2 (Homo sapiens, UniProt P24941); settings: 1 μM; Run 1, Run 2
[11] = molecular target: STK32C/YANK3 (Homo sapiens, UniProt Q86UX6); assay: biochemical; settings: read-out: % enzyme activity, 1 μM; Run 1, Run 2
[12] = molecular target: T2, TAK1 (Homo sapiens, UniProt O43318); assay: biochemical; settings: read-out: % enzyme activity, 1 μM; Run 1, Run 2
T2 sequence (O43318 1-303 limits assumed): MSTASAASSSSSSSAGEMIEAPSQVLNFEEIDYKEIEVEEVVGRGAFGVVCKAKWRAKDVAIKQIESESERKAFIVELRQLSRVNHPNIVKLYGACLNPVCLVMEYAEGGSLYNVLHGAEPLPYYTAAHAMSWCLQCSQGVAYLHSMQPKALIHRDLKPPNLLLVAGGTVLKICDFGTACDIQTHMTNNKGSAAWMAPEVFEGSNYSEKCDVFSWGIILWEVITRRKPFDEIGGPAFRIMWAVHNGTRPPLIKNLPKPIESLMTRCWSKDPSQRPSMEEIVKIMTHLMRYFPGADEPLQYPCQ

[13] = molecular target: YES/YES1 (Homo sapiens, UniProt P07947); settings: 1 μM; Run 1, Run 2
[14] = molecular target: T3, MAPKAPK5/PRAK (Homo sapiens, UniProt Q8IW41); assay: biochemical; settings: read-out: % enzyme activity, 1 μM; Run 1, Run 2
T3 sequence (Q8IW41 1-473): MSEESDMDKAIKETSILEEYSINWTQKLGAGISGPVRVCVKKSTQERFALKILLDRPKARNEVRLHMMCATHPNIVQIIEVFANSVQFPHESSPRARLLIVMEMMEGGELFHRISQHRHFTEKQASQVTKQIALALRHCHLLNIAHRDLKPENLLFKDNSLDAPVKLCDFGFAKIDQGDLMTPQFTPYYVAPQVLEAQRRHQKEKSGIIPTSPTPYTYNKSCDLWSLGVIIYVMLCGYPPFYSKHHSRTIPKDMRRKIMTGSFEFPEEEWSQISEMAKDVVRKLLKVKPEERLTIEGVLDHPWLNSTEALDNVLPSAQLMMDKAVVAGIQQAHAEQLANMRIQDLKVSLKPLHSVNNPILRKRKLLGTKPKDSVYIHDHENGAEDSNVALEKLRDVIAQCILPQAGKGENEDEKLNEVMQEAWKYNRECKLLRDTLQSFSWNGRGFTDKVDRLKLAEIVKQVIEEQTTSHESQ

FGR, sequence (P09769 whole entry): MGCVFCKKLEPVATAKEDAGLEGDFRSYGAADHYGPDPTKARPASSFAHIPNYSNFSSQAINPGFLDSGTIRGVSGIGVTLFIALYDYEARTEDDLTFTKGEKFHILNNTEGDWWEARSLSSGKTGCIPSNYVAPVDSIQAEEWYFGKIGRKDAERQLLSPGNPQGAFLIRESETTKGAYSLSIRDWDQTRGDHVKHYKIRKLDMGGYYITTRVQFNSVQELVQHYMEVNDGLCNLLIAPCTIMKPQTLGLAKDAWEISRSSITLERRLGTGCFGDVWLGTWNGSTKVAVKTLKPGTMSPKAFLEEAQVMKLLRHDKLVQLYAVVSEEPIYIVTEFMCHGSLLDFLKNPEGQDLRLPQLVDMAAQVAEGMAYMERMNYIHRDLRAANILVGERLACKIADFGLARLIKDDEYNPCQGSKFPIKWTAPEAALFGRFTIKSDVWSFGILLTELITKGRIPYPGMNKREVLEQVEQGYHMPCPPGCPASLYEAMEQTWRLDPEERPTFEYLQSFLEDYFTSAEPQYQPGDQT
STK32C/YANK3, sequence (Q86UX6 whole entry): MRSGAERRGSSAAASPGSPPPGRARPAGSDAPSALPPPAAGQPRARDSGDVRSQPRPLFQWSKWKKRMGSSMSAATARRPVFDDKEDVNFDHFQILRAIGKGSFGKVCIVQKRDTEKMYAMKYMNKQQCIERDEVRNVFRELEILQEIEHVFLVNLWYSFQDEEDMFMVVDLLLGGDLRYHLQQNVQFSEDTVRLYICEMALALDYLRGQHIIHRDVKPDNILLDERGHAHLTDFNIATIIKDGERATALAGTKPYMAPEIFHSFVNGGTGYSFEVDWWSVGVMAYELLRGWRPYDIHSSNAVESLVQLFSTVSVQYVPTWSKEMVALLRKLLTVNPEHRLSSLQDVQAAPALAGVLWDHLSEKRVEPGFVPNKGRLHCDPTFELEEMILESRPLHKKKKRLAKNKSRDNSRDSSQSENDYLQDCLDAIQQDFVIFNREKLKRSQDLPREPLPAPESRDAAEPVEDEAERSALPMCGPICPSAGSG
CDK18/cyclin Y (PCTK3), sequence (Q07002 whole entry): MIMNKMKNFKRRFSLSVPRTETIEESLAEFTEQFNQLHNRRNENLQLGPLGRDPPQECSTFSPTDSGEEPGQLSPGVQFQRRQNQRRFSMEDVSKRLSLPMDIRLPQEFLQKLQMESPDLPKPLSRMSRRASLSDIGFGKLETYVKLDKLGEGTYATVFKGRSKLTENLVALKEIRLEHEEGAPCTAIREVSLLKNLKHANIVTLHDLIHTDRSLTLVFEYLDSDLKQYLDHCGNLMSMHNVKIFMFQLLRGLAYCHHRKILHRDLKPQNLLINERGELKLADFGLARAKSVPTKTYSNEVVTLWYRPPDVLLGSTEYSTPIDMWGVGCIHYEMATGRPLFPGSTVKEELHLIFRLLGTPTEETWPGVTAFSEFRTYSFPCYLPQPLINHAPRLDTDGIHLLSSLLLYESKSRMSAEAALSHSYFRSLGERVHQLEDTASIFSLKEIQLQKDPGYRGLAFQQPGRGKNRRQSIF
CDK18/cyclin Y (PCTK3), sequence (Q8ND76 whole entry partner): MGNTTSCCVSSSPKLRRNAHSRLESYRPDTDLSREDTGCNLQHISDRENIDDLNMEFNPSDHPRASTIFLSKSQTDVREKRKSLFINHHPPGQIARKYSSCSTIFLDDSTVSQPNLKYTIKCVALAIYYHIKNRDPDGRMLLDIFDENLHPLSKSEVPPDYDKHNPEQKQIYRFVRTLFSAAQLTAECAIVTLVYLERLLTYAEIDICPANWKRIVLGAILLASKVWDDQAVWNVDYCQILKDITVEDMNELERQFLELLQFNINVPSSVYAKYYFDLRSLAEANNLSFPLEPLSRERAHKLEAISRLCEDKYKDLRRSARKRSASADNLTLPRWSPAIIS
EPHA2, sequence (P29317 24-976): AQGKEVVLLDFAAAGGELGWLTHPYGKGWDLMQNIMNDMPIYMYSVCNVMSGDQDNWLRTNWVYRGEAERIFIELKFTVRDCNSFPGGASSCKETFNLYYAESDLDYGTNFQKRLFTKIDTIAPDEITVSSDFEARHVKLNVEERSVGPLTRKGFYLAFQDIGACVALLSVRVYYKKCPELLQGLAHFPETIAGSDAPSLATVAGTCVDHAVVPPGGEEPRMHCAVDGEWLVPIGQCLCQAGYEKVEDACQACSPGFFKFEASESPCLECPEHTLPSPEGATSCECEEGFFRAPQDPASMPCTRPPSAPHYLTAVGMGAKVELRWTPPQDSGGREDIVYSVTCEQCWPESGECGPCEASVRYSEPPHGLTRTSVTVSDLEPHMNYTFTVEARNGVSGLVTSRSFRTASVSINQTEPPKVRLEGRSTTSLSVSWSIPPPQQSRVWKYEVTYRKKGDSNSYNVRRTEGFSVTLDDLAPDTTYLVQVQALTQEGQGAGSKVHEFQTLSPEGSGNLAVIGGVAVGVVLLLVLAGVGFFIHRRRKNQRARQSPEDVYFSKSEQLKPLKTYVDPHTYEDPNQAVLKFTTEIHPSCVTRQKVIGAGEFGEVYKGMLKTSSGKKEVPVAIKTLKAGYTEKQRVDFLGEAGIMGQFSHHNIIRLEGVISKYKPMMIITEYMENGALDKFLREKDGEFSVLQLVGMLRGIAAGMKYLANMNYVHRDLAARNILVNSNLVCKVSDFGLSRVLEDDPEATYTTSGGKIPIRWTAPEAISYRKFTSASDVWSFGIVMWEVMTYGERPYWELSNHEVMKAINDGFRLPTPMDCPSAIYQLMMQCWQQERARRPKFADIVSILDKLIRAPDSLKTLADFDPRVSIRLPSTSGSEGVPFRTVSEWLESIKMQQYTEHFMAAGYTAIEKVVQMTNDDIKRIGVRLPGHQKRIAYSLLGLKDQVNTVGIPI
YES/YES1, sequence (P07947 whole entry): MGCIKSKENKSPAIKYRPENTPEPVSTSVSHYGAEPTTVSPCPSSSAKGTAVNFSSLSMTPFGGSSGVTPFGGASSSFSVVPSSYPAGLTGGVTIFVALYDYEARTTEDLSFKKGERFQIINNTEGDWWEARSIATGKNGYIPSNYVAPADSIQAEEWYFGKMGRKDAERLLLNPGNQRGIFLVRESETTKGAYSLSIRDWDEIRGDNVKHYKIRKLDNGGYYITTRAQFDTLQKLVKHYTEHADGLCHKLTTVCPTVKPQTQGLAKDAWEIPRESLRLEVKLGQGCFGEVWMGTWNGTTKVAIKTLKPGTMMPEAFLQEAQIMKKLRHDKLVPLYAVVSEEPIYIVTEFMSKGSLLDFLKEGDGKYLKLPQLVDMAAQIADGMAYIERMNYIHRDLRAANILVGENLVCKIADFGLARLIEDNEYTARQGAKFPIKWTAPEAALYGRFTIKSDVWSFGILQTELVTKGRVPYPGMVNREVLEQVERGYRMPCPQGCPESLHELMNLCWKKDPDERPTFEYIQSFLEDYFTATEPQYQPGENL
P38b/MAPK11, sequence (Q15759 whole entry): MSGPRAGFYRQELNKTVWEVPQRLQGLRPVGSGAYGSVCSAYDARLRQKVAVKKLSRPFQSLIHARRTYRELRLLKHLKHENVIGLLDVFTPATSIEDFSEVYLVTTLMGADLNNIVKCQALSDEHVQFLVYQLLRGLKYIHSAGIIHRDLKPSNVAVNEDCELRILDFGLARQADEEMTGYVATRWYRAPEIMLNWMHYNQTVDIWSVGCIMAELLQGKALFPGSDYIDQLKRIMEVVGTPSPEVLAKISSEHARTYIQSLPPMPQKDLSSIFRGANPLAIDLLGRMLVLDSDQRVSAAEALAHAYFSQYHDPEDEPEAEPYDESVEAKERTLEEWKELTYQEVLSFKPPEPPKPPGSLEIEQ
MAST3, sequence (O60307 whole entry): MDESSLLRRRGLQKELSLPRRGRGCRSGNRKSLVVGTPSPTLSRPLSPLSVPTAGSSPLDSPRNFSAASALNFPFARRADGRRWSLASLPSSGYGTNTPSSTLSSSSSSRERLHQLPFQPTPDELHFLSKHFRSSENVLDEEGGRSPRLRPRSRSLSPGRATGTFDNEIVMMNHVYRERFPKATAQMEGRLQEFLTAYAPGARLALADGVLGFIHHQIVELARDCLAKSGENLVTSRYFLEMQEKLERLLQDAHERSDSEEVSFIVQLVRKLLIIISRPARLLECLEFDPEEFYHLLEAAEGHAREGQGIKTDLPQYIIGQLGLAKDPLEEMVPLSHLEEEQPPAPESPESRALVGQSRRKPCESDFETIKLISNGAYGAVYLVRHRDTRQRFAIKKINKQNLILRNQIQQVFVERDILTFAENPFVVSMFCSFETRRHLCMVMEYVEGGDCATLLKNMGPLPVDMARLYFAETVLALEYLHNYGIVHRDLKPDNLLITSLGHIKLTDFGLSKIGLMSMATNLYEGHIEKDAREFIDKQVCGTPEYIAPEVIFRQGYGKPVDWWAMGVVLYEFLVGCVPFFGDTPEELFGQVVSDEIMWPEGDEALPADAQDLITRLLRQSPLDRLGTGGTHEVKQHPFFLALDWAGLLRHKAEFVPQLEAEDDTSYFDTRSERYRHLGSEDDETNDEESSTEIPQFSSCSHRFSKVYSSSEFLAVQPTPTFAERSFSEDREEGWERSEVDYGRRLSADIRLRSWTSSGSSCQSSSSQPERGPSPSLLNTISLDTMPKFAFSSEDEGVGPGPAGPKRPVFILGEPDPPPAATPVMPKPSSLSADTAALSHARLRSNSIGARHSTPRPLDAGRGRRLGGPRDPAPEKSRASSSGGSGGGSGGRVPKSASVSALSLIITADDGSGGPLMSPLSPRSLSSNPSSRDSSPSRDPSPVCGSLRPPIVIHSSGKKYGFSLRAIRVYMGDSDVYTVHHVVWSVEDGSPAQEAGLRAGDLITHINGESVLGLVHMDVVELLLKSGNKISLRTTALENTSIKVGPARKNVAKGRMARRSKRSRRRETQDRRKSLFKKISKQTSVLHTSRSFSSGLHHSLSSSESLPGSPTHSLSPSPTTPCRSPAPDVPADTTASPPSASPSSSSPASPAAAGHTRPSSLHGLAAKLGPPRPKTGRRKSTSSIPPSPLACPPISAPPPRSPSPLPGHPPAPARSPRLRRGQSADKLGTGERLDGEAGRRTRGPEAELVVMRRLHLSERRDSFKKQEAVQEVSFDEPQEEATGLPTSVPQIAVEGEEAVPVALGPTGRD

COc1cc(-c2cncc(-c3ccc(N4CCN(C)CC4)cc3)c2C)cc(F)c1C(N)=O [Compound 26a, 2-Fluoro-6-methoxy-4-(4-methyl-5-(4-(4-methylpiperazin-1-yl)phenyl)pyridin-3-yl)benzamide]
remaining activity at 1 µM [1]: 107% | % enzyme activity [2]: 86.29% | remaining activity at 1 µM [3]: 83.1% | remaining activity at 1 µM [4]: 103% | remaining activity at 1 µM [5]: 94.7% | remaining activity at 1 µM [6]: 92.3% | % enzyme activity [7]: 93.52% | remaining activity at 1 µM [8]: 102% | % enzyme activity [9]: 102.49% | % enzyme activity [10]: 104.96% | remaining activity at 1 µM [11]: 86.8% | remaining activity at 1 µM [12]: 98.5% | % enzyme activity [13]: 104.56% | remaining activity at 1 µM [14]: 93.2%

COc1cc(-c2cncc(-c3ccc(N4C[C@@H](C)N(C)[C@@H](C)C4)cc3)c2C)cc(F)c1C(N)=O [Compound 26c, 2-Fluoro-6-methoxy-4-(4-methyl-5-(4-((3R,5S)-3,4,5-trimethylpiperazin-1-yl)phenyl)pyridin-3-yl)benzamide]
remaining activity at 1 µM [1]: 101% | % enzyme activity [2]: 96.07% | remaining activity at 1 µM [3]: 89.4% | remaining activity at 1 µM [4]: 108% | remaining activity at 1 µM [5]: 94% | remaining activity at 1 µM [6]: 95.5% | % enzyme activity [7]: 95.17% | remaining activity at 1 µM [8]: 99% | % enzyme activity [9]: 100.24% | % enzyme activity [10]: 93.14% | remaining activity at 1 µM [11]: 93.3% | remaining activity at 1 µM [12]: 99.1% | % enzyme activity [13]: 108.87% | remaining activity at 1 µM [14]: 94.7%
